Counter-ions that a name gives are not always drawn.
target: T1, recombinant guanylate cyclase reporter cell line (Rattus norvegicus, UniProt P19686+P20595); test: B-2. Action on recombinant guanylate cyclase reporter cell line; type: cell-based; conditions: MEC = minimal effective concentration; in some cases mean values from individual determinations
T1 construct: expressed in transfected cells
T1 sequence (P20595 1-619): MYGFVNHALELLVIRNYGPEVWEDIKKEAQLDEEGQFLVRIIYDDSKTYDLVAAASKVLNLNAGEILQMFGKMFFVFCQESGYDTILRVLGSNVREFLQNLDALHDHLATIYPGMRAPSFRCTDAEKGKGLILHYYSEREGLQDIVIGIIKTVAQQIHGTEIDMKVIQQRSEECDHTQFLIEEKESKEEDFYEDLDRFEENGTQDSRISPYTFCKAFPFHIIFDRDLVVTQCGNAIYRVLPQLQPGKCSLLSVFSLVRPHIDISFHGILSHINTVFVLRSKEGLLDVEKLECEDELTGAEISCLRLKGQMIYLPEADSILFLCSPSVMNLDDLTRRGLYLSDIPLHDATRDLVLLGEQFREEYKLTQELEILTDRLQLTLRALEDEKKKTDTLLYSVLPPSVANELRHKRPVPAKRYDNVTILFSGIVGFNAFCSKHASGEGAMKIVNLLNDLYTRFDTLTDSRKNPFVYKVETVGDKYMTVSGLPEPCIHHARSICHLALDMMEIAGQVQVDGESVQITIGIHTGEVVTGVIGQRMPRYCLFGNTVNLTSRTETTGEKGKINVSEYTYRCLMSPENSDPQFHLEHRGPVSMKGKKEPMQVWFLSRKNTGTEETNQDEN
T1 sequence (P19686 1-690): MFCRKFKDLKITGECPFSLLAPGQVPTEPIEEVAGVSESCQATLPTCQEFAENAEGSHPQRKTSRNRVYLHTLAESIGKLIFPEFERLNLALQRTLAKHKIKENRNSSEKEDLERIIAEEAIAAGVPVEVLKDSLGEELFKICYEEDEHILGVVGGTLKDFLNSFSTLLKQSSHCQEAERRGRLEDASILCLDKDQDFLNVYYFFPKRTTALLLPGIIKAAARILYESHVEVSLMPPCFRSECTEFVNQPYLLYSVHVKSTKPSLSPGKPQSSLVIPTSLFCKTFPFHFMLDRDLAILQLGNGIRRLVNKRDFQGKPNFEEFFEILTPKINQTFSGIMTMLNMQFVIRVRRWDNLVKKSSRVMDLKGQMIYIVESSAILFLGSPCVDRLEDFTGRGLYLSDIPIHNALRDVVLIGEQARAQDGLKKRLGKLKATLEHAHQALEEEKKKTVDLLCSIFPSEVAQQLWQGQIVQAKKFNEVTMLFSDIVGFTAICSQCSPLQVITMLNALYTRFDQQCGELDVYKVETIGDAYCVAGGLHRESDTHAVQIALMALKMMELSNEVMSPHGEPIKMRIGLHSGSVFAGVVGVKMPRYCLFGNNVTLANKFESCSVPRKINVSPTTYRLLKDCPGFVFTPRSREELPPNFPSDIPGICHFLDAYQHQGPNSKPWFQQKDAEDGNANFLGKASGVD
Protocol: B-2. Action on Recombinant Guanylate Cyclase Reporter Cell Line
The cellular action of the compounds according to the invention is determined on a recombinant guanylate cyclase reporter cell line, as described in F. Wunder et al., Anal. Biochem. 339, 104-112 (2005).
Representative MEC values (MEC=minimal effective concentration) for the compounds according to the invention are shown in the following table (in some cases as mean values obtained from individual determinations): […]

| MEC | SMILES |
| --- | --- |
| 0.30 µM | Cc1cc(OCc2c(F)cccc2F)c2nc(C)c(C(=O)NCC(N)c3ccc(C)o3)n2c1 (racemic) [Example 369, rac-N-[2-amino-2-(5-methyl-2-furyl)ethyl]-8-[(2,6-difluorobenzyl)oxy]-2,6-dimethylimidazo[1,2-a]pyridine-3-carboxamide] |
| 0.10 µM | CCCC(C)(N)CNC(=O)c1c(C)nc2c(OCc3c(F)cccc3F)cc(C)cn12 (single isomer, unassigned) [Example 233, ent-N-(2-Amino-2-methylpentyl)-8-[(2,6-difluorobenzyl)oxy]-2,6-dimethylimidazo[1,2-a]pyridine-3-carboxamide] |
| 1.00 µM | Cc1nc2c(OCc3c(F)cccc3F)cc(Cl)cn2c1C(=O)NCCN1CCN(C(C)C)CC1 [Example 152, 6-chloro-8-[(2,6-difluorobenzyl)oxy]-N-[2-(4-isopropylpiperazin-1-yl)ethyl]-2-methyl-imidazo[1,2-a]pyridine-3-carboxamide] |
| 0.10 µM | Cc1nc2c(OCc3c(F)cccc3F)cccn2c1C(=O)NC1CCNc2ccc(C(F)(F)F)cc21 (single isomer, unassigned; ent-8) [Example 112, ent-8-[(2,6-difluorobenzyl)oxy]-2-methyl-N-[6-(trifluoromethyl)-1,2,3,4-tetrahydroquinolin-4-yl]imidazo[1,2-a]pyridine-3-carboxamide] |
| 5.5 µM | Cc1cc(OCc2c(F)cccc2F)c2nc(C)c(C(=O)NCC(N)CCS(C)(=O)=O)n2c1 (racemic) [Example 413, rac-N-[2-amino-4-(methylsulfonyl)butyl]-8-[(2,6-difluorobenzyl)oxy]-2,6-dimethylimidazo[1,2-a]pyridine-3-carboxamide] |
| 1.00 µM | Cc1nc2c(OCc3c(F)cccc3F)cccn2c1C(=O)NC(CN)c1ccc(F)c(F)c1 (single isomer, unassigned; enantiomer a) [Example 12, ent-N-[2-Amino-1-(3,4-difluorophenyl)ethyl]-8-[(2,6-difluorobenzyl)oxy]-2-methylimidazo[1,2-a]-pyridine-3-carboxamide (Enantiomer A)] |
| 0.30 µM | Cc1cc(OCc2c(F)cccc2F)c2nc(C)c(C(=O)NC3CNCC3C(F)(F)F)n2c1 (mixture of isomers) [Example 313, 8-[(2,6-Difluorobenzyl)oxy]-2,6-dimethyl-N-[4-(trifluoromethyl)pyrrolidin-3-yl]imidazo[1,2-a]pyridine-3-carboxamide (Mixture of Stereoisomers)] |
| 3.00 µM | Cc1nc2c(OCc3c(F)cccc3F)cc(Cl)cn2c1C(=O)NCCN1CC(N2CCCC2)C1 [Example 156, 6-chloro-8-[(2,6-difluorobenzyl)oxy]-2-methyl-N-{2-[3-(pyrrolidin-1-yl)azetidin-1-yl]ethyl}-imidazo[1,2-a]pyridine-3-carboxamide] |

More lines, now with the values behind:

| SMILES | MEC |
| --- | --- |
| CCOCC(CN)NC(=O)c1c(C)nc2c(OCc3c(F)cccc3F)cccn12 (single isomer, unassigned) [Example 56, ent-N-(1-amino-3-ethoxypropan-2-yl)-8-[(2,6-difluorobenzyl)oxy]-2-methylimidazo[1,2-a]-pyridine-3-carboxamide] | 1.00 µM |
| Cc1cc(OCc2c(F)cccc2F)c2nc(C)c(C(=O)NCC3(N)CCCCC3)n2c1 [Example 307, N-[(1-aminocyclohexyl)methyl]-8-[(2,6-difluorobenzyl)oxy]-2,6-dimethylimidazo[1,2-a]pyridine-3-carboxamide] | 0.65 µM |
| Cc1nc2c(OCc3c(F)cccc3F)cc(Cl)cn2c1C(=O)NCC1(N)CCCC1 [Example 42, N-[(1-aminocyclopentyl)methyl]-6-chloro-8-[(2,6-difluorobenzyl)oxy]-2-methylimidazo[1,2-a]pyridine-3-carboxamide] | 1.00 µM |
| C#Cc1cc(OCc2c(F)cccc2F)c2nc(C)c(C(=O)NCC(C)(N)CCC)n2c1 (stereo not drawn) [Example 355, ent-N-(2-amino-2-methylpentyl)-8-[(2,6-difluorobenzyl)oxy]-6-ethynyl-2-methylimidazo[1,2-a]pyridine-3-carboxamide Formate] | 0.30 µM |
| Cc1nc2c(OCc3c(F)cccc3F)cccn2c1C(=O)NC1CC(C)(C)N(C)C(C)(C)C1 [Example 83, 8-[(2,6-difluorobenzyl)oxy]-2-methyl-N-(1,2,2,6,6-pentamethylpiperidin-4-yl)imidazo[1,2-a]pyridine-3-carboxamide] | 0.10 µM |
| Cc1cc(OCc2c(F)cccc2F)c2nc(C)c(C(=O)NC3CNCC3F)n2c1 (racemic) [Example 347, rac-8-[(2,6-Difluorobenzyl)oxy]-N-(4-fluoropyrrolidin-3-yl)-2,6-dimethylimidazo[1,2-a]pyridine-3-carboxamide] | 1.00 µM |
| Cc1cc(OCc2c(F)cccc2F)c2nc(C)c(C(=O)NCCN3CCN(C(C)C)CC3)n2c1 [Example 139, 8-[(2,6-difIuorobenzyl)oxy]-N-[2-(4-isopropylpiperazin-1-yl)ethyl]-2,6-dimethylimidazo[1,2-a]pyridine-3-carboxamide] | 1.00 µM |
| Cc1nc2c(OCC3CCCCC3)cccn2c1C(=O)NC(CN)c1ccc(F)c(F)c1 (racemic) [Example 46, rac-N-[2-Amino-1-(3,4-difluorophenyl)ethyl]-8-(cyclohexylmethoxy)-2-methylimidazo[1,2-a]-pyridine-3-carboxamide] | 1.00 µM |
| Cc1nc2c(OCc3c(F)cccc3F)cccn2c1C(=O)NC1CN2CCC1CC2 (stereo not drawn) [Example 92, N-(1-azabicyclo[2.2.2]oct-3-yl)-8-[(2,6-difluorobenzyl)oxy]-2-methylimidazo[1,2-a]-pyridine-3-carboxamide] | 0.30 µM |
| Cc1nc2c(OCc3c(F)cccc3F)cccn2c1C(=O)NCCN(CC(F)F)C1CC1 [Example 146, N-{2-[cyclopropyl(2,2-difluoroethyl)amino]ethyl}-8-[(2,6-difluorobenzyl)oxy]-2-methylimidazo[1,2-a]-pyridine-3-carboxamide] | 1.00 µM |
| Cc1cc(OCc2c(F)cccc2F)c2nc(C)c(C(=O)NCC(C)N3CCOCC3)n2c1 (single isomer, unassigned; ent-8) [Example 187, ent-8-[(2,6-Difluorobenzyl)oxy]-2,6-dimethyl-N-[2-(morpholin-4-yl)propyl]imidazo[1,2-a]-pyridine-3-carboxamide] | 0.30 µM |
| Cc1nc2c(OCc3c(F)cccc3F)cccn2c1C(=O)NC(CN)CC(F)(F)F (single isomer, unassigned; enantiomer b) [Example 3, ent-N-(1-Amino-4,4,4-trifluorobutan-2-yl)-8-[(2,6-difluorobenzyl)oxy]-2-methylimidazo[1,2-a]-pyridine-3-carboxamide (Enantiomer B)] | 0.30 µM |
| CCCC(C)(N)CNC(=O)c1c(C)nc2c(OCc3c(F)cccc3F)cc(Cl)cn12 (single isomer, unassigned) [Example 245, ent-N-(2-Amino-2-methylpentyl)-6-chloro-8-[(2,6-difluorobenzyl)oxy]-2-methylimidazo[1,2-a]-pyridine-3-carboxamide] | 0.10 µM |
| Cc1nc2c(OCc3c(F)cccc3F)cc(Cl)cn2c1C(=O)NCC(C)(C)N [Example 73, N-(2-Amino-2-methylpropyl)-6-chloro-8-[(2,6-difluorobenzyl)oxy]-2-methylimidazo[1,2-a]-pyridine-3-carboxamide] | 0.30 µM |
| CCCC(C)(N)CNC(=O)c1c(C)nc2c(OCc3ccccc3)cc(C)cn12 (racemic) [Example 340, rac-N-(2-amino-2-methylpentyl)-8-(benzyloxy)-2,6-dimethylimidazo[1,2-a]pyridine-3-carboxamide] | 1.00 µM |
| Cc1nc2c(OCc3c(F)cccc3F)cccn2c1C(=O)NC12CNCCC1C2 (racemic) [Example 125, rac-N-(3-Azabicyclo[4.1.0]hept-1-yl)-8-[(2,6-difluorobenzyl)oxy]-2-methylimidazo[1,2-a]-pyridine-3-carboxamide] | 1.00 µM |
